Each compound was assayed against T1, SYK (Homo sapiens, UniProt P43405) (assay: SYK inhibition: in vitro assay of SYK-mediated phosphorylation of FAM-labeled substrate (Caliper LC-3000)). Details: SYK kinase domain (residues 356-635); 2.4 nM SYK and 45 μM ATP, 3 μM 5FAM-KKKKEEIYFFFG-NH2, RT 60 min, pH 7.3; pIC50 = −log(IC50), IC50 molar.
T1 construct: The SYK kinase domain (residues 356-635) is amplified via PCR; made in house; host or cells: Sf9 insect cells (baculovirus, pFastBac1)
Type: biochemical
Experimental: The ability of compounds to inhibit SYK activity may be assessed using a variety of methods, including in vitro and in vivo assays. The following in vitro assay measures a test compound's ability to inhibit SYK-mediated phosphorylation of a FAM-labeled SYK-specific substrate (5FAM-KKKKEEIYFFFG-NH2).
SYK protein is prepared from cDNA encoding human spleen tyrosine kinase and is expressed in insect cells using a baculovirus expression vector. The cDNA (IMAGE: 3542895) is purchased from Open Biosystems. The SYK kinase domain (residues 356-635) is amplified via PCR and cloned into plasmid pFastBacl (Invitrogen) at BamHI/XbaI sites. Recombinant plasmid encoding Met-Ala-Lys-SYK(356-635)-HHHHHH is sequenced and transformed into E. coli DH10Bac strain. The recombinant bacmid DNA is isolated and transfected into Sf9 insect cells. Recombinant virus is harvested 72 h after transfection. High titer viral stock is prepared by infecting Sf9 cells at a multiplicity of infection (MOI) of approximately 0.01. A suspension of Sf9 cells (10 L) is infected with recombinant virus (MOI=5) and is incubated in a Wave Bioreactor (GE-Healthcare) for 48 h. The cells are harvested and stored at −80° C.
To purify the expressed protein, the frozen Sf9 cells (10 L) are broken into small (<1 cm) particles and suspended in a lysis buffer (300 mL) containing 20 mM Tris (pH 7.6), 0.25 mM TCEP, 100 mM NaCl, 5% glycerol and a protease inhibitor. The suspension is stirred at RT until completely thawed, lysed an additional 2-4 min on a rotary blade homogenizer, and then centrifuged at 4200 g for 1 h. Following centrifugation, the supernatant is poured through cheese cloth and combined with a nickel chelating resin (Probond Resin™, Invitrogen) which is pre-equilibrated in a wash buffer containing 10 mM Tris (pH 7.6), 0.25 mM TCEP, 300 mM NaCl, 5% glycerol, and 20 mM imidazole. The mixture is agitated for 3 h in a cold room and then centrifuged at 900 g for 10 min. The resin is dispersed in wash buffer (50 mL), centrifuged for 10 min at 900 g, re-dispersed in a small amount of wash buffer (5 mL), and then pour into a disposable Poly-Prep chromatography column, through which wash buffer is passed by gravity until no protein is observed in coomassie buffer (about 120 mL of wash buffer). An elution buffer (30 mL) containing 10 mM HEPES (pH 7.4), 150 mM NaCl, 10% glycerol, 5 mM DTT, and 400 mM imidazole is used to elute the SYK protein from the resin. The eluate is concentrated (5 mL) and further purified on a Superdex 200 column (1.2 mL/min for 160 min, 10 mM HEPES (pH 7.4), 10 mM NaCl, 10 mM MgCl, 0.1 mM EDTA, and 0.25 mM TCEP). The chromatographed fractions are run on SDS-PAGE and the requisite fractions are pooled and concentrated. Final delivery buffer is 10 mM HEPES (pH 7.4), 10 mM Methione, 150 mM NaCl, 10% glycerol, 5 mM DTT.
SYK inhibition is determined using a black 384 well plate format in buffer containing 50 mM HEPES, 10 mM NaCl, 10 mM MgCl2, 0.2 mM EDTA, 0.01% EDA (Brij®35), 1 mM DTT, and 0.1 mg/ml BSA at pH 7.3. Each test compound is prepared in DMSO using 2-fold serial dilutions for 11 data points, which are added to the buffer so that each dilution contains 3% DMSO. To each well is added 2 μL of 3 μM SFAM-KKKKEEIYFFFG-NH2 (in buffer), 2 μL of diluted test compound (3% DMSO in buffer), and 2 μL of 2.4 nM SYK and 45 μM ATP (in buffer). The reaction mixture is incubated at RT for 60 min, and quenched by adding 50 mM Hepes, 30 mM EDTA, 0.1% Triton X-100 (pH 7.3). To quantify the fluorescent-labeled substrate and product following reaction, the test plate is loaded on a Caliper LC-3000, which measures percent of conversion by microfluidic-based separation. Corresponding IC50 values are calculated by non-linear curve fitting of the compound concentrations and percent of inhibition to the standard IC50 equation and reported as pIC50, i.e., −log(IC50), where IC50 is molar concentration.

Compound	IC50 [nM]
N[C@H]1COCC[C@H]1Nc1nc(-c2ccns2)c2c(c1F)CNC2=O [Example 4, 6-((3R,4R)-3-Aminotetrahydro-2H-pyran-4-ylamino)-7-fluoro-4-(isothiazol-5-yl)-1H-pyrrolo[3,4-c]pyridin-3(2H)-one]	12.6
N#Cc1ccc2sc(-c3nc(N[C@@H]4CCOC[C@@H]4N)c(F)c4c3C(=O)NC4)cc2c1 [Example 21, 2-(6-((3R,4R)-3-Aminotetrahydro-2H-pyran-4-ylamino)-7-fluoro-3-oxo-2,3-dihydro-1H-pyrrolo[3,4-c]pyridin-4-yl)benzo[b]thiophene-5-carbonitrile]	0.316
C[C@@H]1NC(=O)c2c(-c3cnn4ccc(F)cc34)nc(N[C@@H]3CCCC[C@@H]3N)c(F)c21 [Example 53, (S)-6-(((1R,2S)-2-Aminocyclohexyl)amino)-7-fluoro-4-(5-fluoropyrazolo[1,5-a]pyridin-3-yl)-1-methyl-1H-pyrrolo[3,4-c]pyridin-3(2H)-one]	398
N[C@H]1COCC[C@H]1Nc1nc(-c2cc(F)cs2)c2c(c1F)CNC2=O [Example 27, 6-((3R,4R)-3-Aminotetrahydro-2H-pyran-4-ylamino)-7-fluoro-4-(4-fluorothiophene-2-yl)-1H-pyrrolo[3,4-c]pyridin-3(2H)-one]	5.01
N[C@H]1CCCC[C@H]1Nc1nc(-c2cc(F)cs2)c2c(c1F)CNC2=O [Example 28, 6-((1R,2S)-2-Aminocyclohexylamino)-7-fluoro-4-(4-fluorothiophene-2-yl)-1H-pyrrolo[3,4-c]pyridin-3(2H)-one]	1.58
N#Cc1ccc(-c2nc(N[C@@H]3CCOC[C@@H]3N)c(F)c3c2C(=O)NC3)s1 [Example 8, 5-(6-((3R,4R)-3-Aminotetrahydro-2H-pyran-4-ylamino)-7-fluoro-3-oxo-2,3-dihydro-1H-pyrrolo[3,4-c]pyridin-4-yl)thiophene-2-carbonitrile]	20
C[C@H]1NC(=O)c2c(-c3cnn4ccc(F)cc34)nc(N[C@@H]3CCCC[C@@H]3N)c(F)c21 [Example 52, (R)-6-(((1R,2S)-2-Aminocyclohexyl)amino)-7-fluoro-4-(5-fluoropyrazolo[1,5-a]pyridin-3-yl)-1-methyl-1H-pyrrolo[3,4-c]pyridin-3(2H)-one]	39.8
Cc1cc(-c2nc(N[C@@H]3CCCC[C@@H]3N)c(F)c3c2C(=O)NC3)sn1 [Example 42, 6-((1R,2S)-2-Aminocyclohexylamino)-7-fluoro-4-(3-methylisothiazol-5-yl)-1H-pyaolo[3,4-c]pyridin-3(2H)-one]	0.631
N[C@H]1COCC[C@H]1Nc1nc(-c2cc3ccncc3s2)c2c(c1F)CNC2=O [Example 9, 6-((3R,4R)-3-Aminotetrahydro-2H-pyran-4-ylamino)-7-fluoro-4-(thieno[2,3-c]pyridin-2-yl)-1H-pyrrolo[3,4-c]pyridin-3(2H)-one]	0.2
Cc1nn(C)c2cc(-c3nc(N[C@@H]4CCOC[C@@H]4N)c(F)c4c3C(=O)NC4)sc12 [Example 32, 6-((3R,4R)-3-Aminotetrahydro-2H-pyran-4-ylamino)-4-(1,3-dimethyl-1H-thieno[3,2-c]pyrazol-5-yl)-7-fluoro-1H-pyrrolo[3,4-c]pyridin-3(2H)-one]	0.2
N[C@H]1COCC[C@H]1Nc1nc(-c2cc3ccc(F)cc3s2)c2c(c1F)CNC2=O [Example 19, 6-((3R,4R)-3-Aminotetrahydro-2H-pyran-4-ylamino)-7-fluoro-4-(6-fluorobenzo[b]thiophen-2-yl)-1H-pyrrolo[3,4-c]pyridin-3(2H)-one]	0.158
CCOC(=O)c1ccn2cc(-c3nc(N[C@@H]4CCOC[C@@H]4N)c(F)c4c3C(=O)NC4)cc2c1 [Example 39, Ethyl 2-(6-((3R,4R)-3-Aminotetrahydro-2H-pyran-4-ylamino)-7-fluoro-3-oxo-2,3-dihydro-1H-pyrrolo[3,4-c]pyridin-4-yl)indolizine-7-carboxylate]	2
Cc1c2sc(-c3nc(N[C@@H]4CCOC[C@@H]4N)c(F)c4c3C(=O)NC4)cc2nn1C [Example 34, 6-((3R,4R)-3-Aminotetrahydro-2H-pyran-4-ylamino)-4-(2,3-dimethyl-2H-thieno[3,2-c]pyrazol-5-yl)-7-fluoro-1H-pyrrolo[3,4-c]pyridin-3(2H)-one]	1.26
N[C@H]1CCCC[C@H]1Nc1nc(/C=C/c2ccc(F)cc2)c2c(c1F)CNC2=O [Example 45, 6-((1R,2S)-2-Aminocyclohexylamino)-7-fluoro-4-(4-fluorostyryl)-1H-pyrrolo[3,4-c]pyridin-3(2H)-one]	2.51
Cc1nn(C)c2sc(-c3nc(N[C@@H]4CCOC[C@@H]4N)c(F)c4c3C(=O)NC4)cc12 [Example 37, 6-((3R,4R)-3-Aminotetrahydro-2H-pyran-4-ylamino)-4-(1,3-dimethyl-1H-thieno[2,3-c]pyrazol-5-yl)-7-fluoro-1H-pyrrolo[3,4-c]pyridin-3(2H)-one]	0.316
N[C@H]1COCC[C@H]1Nc1nc(-c2cc3cnccc3s2)c2c(c1F)CNC2=O [Example 17, 6-((3R,4R)-3-Aminotetrahydro-2H-pyran-4-ylamino)-7-fluoro-4-(thieno[3,2-c]pyridin-2-yl)-1H-pyrrolo[3,4-c]pyridin-3(2H)-one]	0.251
N[C@H]1CCCC[C@H]1Nc1nc(-c2cc3cccnc3s2)c2c(c1F)CNC2=O [Example 14, 6-((1R,2S)-2-Aminocyclohexylamino)-7-fluoro-4-(thieno[2,3-b]pyridin-2-yl)-1H-pyrrolo[3,4-c]pyridin-3(2H)-one]	0.158
N[C@H]1CCCC[C@H]1Nc1nc(-c2cc3ncccc3s2)c2c(c1F)CNC2=O [Example 26, 6-((1R,2S)-2-Aminocyclohexylamino)-7-fluoro-4-(thieno[3,2-b]pyridin-2-yl)-1H-pyrrolo[3,4-c]pyridin-3(2H)-one]	5.01
N[C@H]1COCC[C@H]1Nc1nc(CCc2ccc(Cl)cc2)c2c(c1F)CNC2=O [Example 49, 6-((3R,4R)-3-Aminotetrahydro-2H-pyran-4-ylamino)-4-(4-chlorophenethyl)-7-fluoro-1H-pyrrolo[3,4-c]pyridin-3(2H)-one]	63.1
N[C@H]1CCCC[C@H]1Nc1nc(-c2cc3cc(F)ccc3s2)c2c(c1F)CNC2=O [Example 16, 6-(((1R,2S)-2-Aminocyclohexyl)amino)-7-fluoro-4-(5-fluorobenzo[b]thiophen-2-yl)-1H-pyrrolo[3,4-c]pyridin-3(2H)-one]	0.316
N[C@H]1COCC[C@H]1Nc1nc(C#Cc2ccccc2)c2c(c1F)CNC2=O [Example 44, 6-((3R,4R)-3-Aminotetrahydro-2H-pyran-4-ylamino)-7-fluoro-4-(phenylethynyl)-1H-pyrrolo[3,4-c]pyridin-3(2H)-one]	63.1
N[C@H]1COCC[C@H]1Nc1nc(CCc2ccccc2)c2c(c1F)CNC2=O [Example 48]	100
N[C@H]1COCC[C@H]1Nc1nc(-c2cc3n(c2)CCC3=O)c2c(c1F)CNC2=O [Example 41, 6-((3R,4R)-3-Aminotetrahydro-2H-pyran-4-ylamino)-7-fluoro-4-(1-oxo-2,3-dihydro-1H-pyrrolizin-6-yl)-1H-pyrrolo[3,4-c]pyridin-3(2H)-one]	20
